In US20230272062A1, “Treatment Of Lung Disease Based Upon Stratification Of Polygenic Score Relating To Response To A Therapeutic Agent” (Regeneron Pharmaceuticals, Inc., priority 2021, published 2023):
Entries after “also recorded” stand apart in the source; their conditions may differ.

Tests used:
[1] = Change of FEV1 in dupilumab-treated subjects stratified by FEV1-PS; format: in vivo, human; conditions: European subjects
Description: The covariates were AGE, SEX, STUDYID (study identifier), ICS_FL (taking inhaled corticosteroids at baseline; yes/no), EOSBL_300 FL (eosinophils >300 at baseline), ASMANUM_LOG (exacerbation history for the previous year), HGTBL (height baseline), FEV1BL, and PC1-4 (principal components 1-4). The FEV1-PS was divided into quartiles and ranked from lowest to highest, the number at the bottom of each bar is the number of subjects in each group, and the number inside each bar is the change in FEV1 values at week 12.
The covariates were AGE, SEX, STUDYID, ICS_FL, EOSBL_300 FL, ASMANUM_LOG, HGTBL, FEV1BL, and PC1-4.

[2] = Annualized exacerbation rate in dupilumab-treated subjects stratified by FEV1-PS; format: in vivo, human; conditions: European subjects, by FEV1-PS quartile (FIG. 3)
Description: The covariates were AGE, SEX, STUDYID, ICS_FL, EOSBL_300 FL, ASMANUM_LOG, HGTBL, FEV1BL, and PC1-4. The FEV1-PS was divided into quartiles and ranked from lowest to highest, the number at the bottom of each bar is the number of subjects in each group, and the number inside each bar is the change in annualized exacerbation rate.

dupilumab
longitudinal increase of change of FEV1 ([1]; by FEV1-PS (FIG. 2)): significantly associated with better FEV1 improvement; also recorded: greatest FEV1 improvement
change of FEV1 at week 12 ([1]; by FEV1-PS quartile, compared to placebo-treated patients (FIG. 1)): significantly associated with better FEV1 improvement; also recorded: greatest improvement in FEV1
annualized exacerbation rates [2]: not associated with differences in annualized exacerbation rates
